Results as given in PubChem BioAssay AID602404 (Sanford-Burnham Center for Chemical Genomics, 2012).
Values joined by “and” are separate entries in the source; they are usually repeats but may differ in a detail not shown here. Equal values may be shown once. Active and inactive are the calls of the source. No rule for the calls is given here.

The molecules below were run against Ubiquitin-conjugating enzyme E2 N (Homo sapiens) (UniProt P61088) (assay: inhibition of UBC13-driven polyubiquitin chain formation – biochemical, TR-FRET, set 4, SAR follow-up (AID 602404)). Details: UBC13 polyubiquitination.
Ubiquitin-conjugating enzyme E2 N (Homo sapiens), sequence (P61088 whole entry, looked up): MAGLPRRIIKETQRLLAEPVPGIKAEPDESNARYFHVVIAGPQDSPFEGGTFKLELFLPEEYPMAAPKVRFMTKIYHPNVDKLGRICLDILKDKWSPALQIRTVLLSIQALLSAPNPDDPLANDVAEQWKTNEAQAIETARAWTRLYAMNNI

| SMILES | IC50 |
| --- | --- |
| Cc1cccc(NC(=O)C2CCCN(c3ncnc4c3nc3n4CCCCC3)C2)c1 (stereo not given) | > 100 µM (inactive) |
| O=C(NCc1ccc(Cl)c(Cl)c1)C1CCCN(c2ncnc3c2nc2n3CCCCC2)C1 (stereo not given) | > 100 µM (inactive) |
| O=C(NCC1CCN(Cc2ccc(F)cc2)CC1)C1CCCN(c2ncnc3c2nc2n3CCCCC2)C1 (stereo not given) | 2.87 µM |
| Cc1ccc(NC(=O)C2CCCN(c3ncnc4c3nc3n4CCCC3)C2)cc1Br (stereo not given) | inactive |
| O=C(NCC1CCN(Cc2ccc(Cl)cc2)CC1)C1CCCN(c2ncnc3c2nc2n3CCCCC2)C1 (stereo not given) | 2.75 µM |
| O=C(NCC1CCN(Cc2ccc(Cl)c(Cl)c2)CC1)C1CCCN(c2ncnc3c2nc2n3CCCCC2)C1 (stereo not given) | 4.03 µM |
| O=C(NCc1cccc(Cl)c1)C1CCN(c2ncnc3c2nc2n3CCCCC2)CC1 | inactive |
| O=C(NCC1CCN(Cc2cccc(Cl)c2)CC1)[C@@H]1CCCN(c2ncnc3c2nc2n3CCCCC2)C1 | 3.37 µM |
| Cc1c(Cl)cccc1NC(=O)C1CCN(c2ncnc3c2nc2n3CCCCC2)CC1 | 11.8 µM |
| Cc1cc(C)cc(NC(=O)C2CCCN(c3ncnc4c3nc3n4CCCC3)C2)c1 (stereo not given) | inactive |
| Cc1ccc(NC(=O)C2CCCN(c3ncnc4c3nc3n4CCCCC3)C2)cc1Br (stereo not given) | > 100 µM (inactive) |
| Cc1ccc(C)c(CN2CCC(CNC(=O)C3CCCN(c4ncnc5c4nc4n5CCCCC4)C3)CC2)c1 (stereo not given) | 2.69 µM |
| O=C(NCc1cccc(Cl)c1)C1CCN(c2ncnc3c2nc2n3CCCC2)CC1 | 12.6 µM |
| CN(CCNC(=O)C1CCN(c2ncnc3c2nc2n3CCCCC2)CC1)Cc1ccccc1 | 1.23 µM |
| O=C(NCc1ccc(Cl)c(Cl)c1)C1CCN(c2ncnc3c2nc2n3CCCCC2)CC1 | > 100 µM (inactive) |
| Cc1cc(C)cc(NC(=O)C2CCN(c3ncnc4c3nc3n4CCCC3)CC2)c1 | inactive |
| O=C(NCc1ccc(Cl)c(Cl)c1)C1CCN(c2ncnc3c2nc2n3CCCC2)CC1 | > 100 µM (inactive) |
| O=C(NCCCN1CCN(c2ccc(F)cc2)CC1)C1CCCN(c2ncnc3c2nc2n3CCCCC2)C1 (stereo not given) | 2.22 µM |
| O=C(NCC1CCN(Cc2ccc(Cl)cc2)CC1)C1CCCN(c2ncnc3c2nc2n3CCCC2)C1 (stereo not given) | 6.79 µM |
| O=C(Nc1cccc(Cl)c1)C1CCN(c2ncnc3c2nc2n3CCCCC2)CC1 | 5.75 µM |
| O=C(NCc1cccc(Cl)c1)C1CCCN(c2ncnc3c2nc2n3CCCCC2)C1 (stereo not given) | inactive |
| O=C(NCc1cccc(Cl)c1)C1CCCN(c2ncnc3c2nc2n3CCCC2)C1 (stereo not given) | > 100 µM (inactive) |
| COc1ccc(Cl)cc1NC(=O)C1CCN(c2ncnc3c2nc2n3CCCCC2)CC1 | inactive |
| COc1ccc(NC(=O)C2CCN(c3ncnc4c3nc3n4CCCCC3)CC2)cc1Cl | inactive |
| COc1cc(OC)c(NC(=O)C2CCN(c3ncnc4c3nc3n4CCCCC3)CC2)cc1Cl | inactive |
| O=C(NCC1CCN(Cc2ccccc2F)CC1)C1CCCN(c2ncnc3c2nc2n3CCCCC2)C1 (stereo not given) | 8.42 µM |

| SMILES | IC50 |
| --- | --- |
| Cc1ccccc1CN1CCC(CNC(=O)C2CCCN(c3ncnc4c3nc3n4CCCCC3)C2)CC1 (stereo not given) | 3.55 µM |
| O=C(NCC1CCN(Cc2ccccc2Cl)CC1)C1CCCN(c2ncnc3c2nc2n3CCCC2)C1 (stereo not given) | 1.04 µM |
| O=C(NCC1CCN(Cc2cccc(Cl)c2)CC1)C1CCCN(c2ncnc3c2nc2n3CCCC2)C1 (stereo not given) | 0.962 µM |
| Cc1ccc(NC(=O)C2CCN(c3ncnc4c3nc3n4CCCC3)CC2)cc1Br | inactive |
| O=C(NCC1CCN(Cc2cccc(Cl)c2)CC1)[C@@H]1CCCN(c2ncnc3c2nc2n3CCCC2)C1 | 0.781 µM |
| O=C(NCC1CCN(Cc2cccc(Cl)c2)CC1)[C@H]1CCCN(c2ncnc3c2nc2n3CCCCC2)C1 | 15 µM |
| Cc1ccc(NC(=O)C2CCCN(c3ncnc4c3nc3n4CCCC3)C2)cc1F (stereo not given) | inactive |
| O=C(NCCCN1CCN(c2ccccc2)CC1)C1CCCN(c2ncnc3c2nc2n3CCCCC2)C1 (stereo not given) | 3.06 µM |
| Cc1cccc(NC(=O)C2CCN(c3ncnc4c3nc3n4CCCC3)CC2)c1 | inactive |
| Cc1cccc(N2CCN(CCCNC(=O)C3CCCN(c4ncnc5c4nc4n5CCCCC4)C3)CC2C)c1 (stereo not given) | 19.1 µM |
| O=C(NCc1ccc(Cl)c(Cl)c1)C1CCCN(c2ncnc3c2nc2n3CCCC2)C1 (stereo not given) | inactive |
| O=C(NCC1CCN(Cc2ccc(Cl)c(Cl)c2)CC1)C1CCCN(c2ncnc3c2nc2n3CCCC2)C1 (stereo not given) | 5.74 µM |
| Cc1cc(C)cc(NC(=O)C2CCCN(c3ncnc4c3nc3n4CCCCC3)C2)c1 (stereo not given) | inactive |
| Cc1ccc(NC(=O)C2CCN(c3ncnc4c3nc3n4CCCC3)CC2)cc1C | inactive |
| Cc1ccc(NC(=O)C2CCCN(c3ncnc4c3nc3n4CCCCC3)C2)cc1F (stereo not given) | inactive |
| Cc1ccc(C)c(N2CCN(CCCNC(=O)C3CCCN(c4ncnc5c4nc4n5CCCCC4)C3)CC2)c1 (stereo not given) | 9.51 µM |
| O=C(NCC1CCN(Cc2cccc(Cl)c2)CC1)C1CCCN(c2ncnc3c2nc2n3CCCCC2)C1 (stereo not given) | 0.813 µM and 1.13 µM |
| Cc1ccc(NC(=O)C2CCN(c3ncnc4c3nc3n4CCCC3)CC2)cc1F | inactive |
| O=C(NCC1CCN(Cc2cccc(Cl)c2)CC1)[C@H]1CCCN(c2ncnc3c2nc2n3CCCC2)C1 | 2.66 µM |
| COc1ccccc1N1CCN(CCCNC(=O)C2CCCN(c3ncnc4c3nc3n4CCCCC3)C2)CC1 (stereo not given) | inactive |
| O=C(Nc1ccc(F)c(Cl)c1)C1CCN(c2ncnc3c2nc2n3CCCCC2)CC1 | 5.67 µM |
| Cc1ccc(NC(=O)C2CCCN(c3ncnc4c3nc3n4CCCC3)C2)cc1C (stereo not given) | inactive |
| O=C(Nc1ccc(CN2CCCCC2)cc1)C1CCN(c2ncnc3c2nc2n3CCCCC2)CC1 | inactive |
| O=C(NCC1CCN(Cc2ccccc2Cl)CC1)C1CCCN(c2ncnc3c2nc2n3CCCCC2)C1 (stereo not given) | 2.28 µM |
| Cc1cccc(NC(=O)C2CCCN(c3ncnc4c3nc3n4CCCC3)C2)c1 (stereo not given) | inactive |

Further lines, results first:

| IC50 | SMILES |
| --- | --- |
| 5.66 µM | CCC1CCCCN1CCCNC(=O)C1CCN(c2ncnc3c2nc2n3CCCCC2)CC1 (stereo not given) |
| inactive | Cc1cccc(NC(=O)C2CCN(c3ncnc4c3nc3n4CCCCC3)CC2)c1 |
| inactive | O=C(c1ccco1)N1CCN(C(=O)C2CCN(c3ncnc4c3nc3n4CCCCC3)CC2)CC1 |
| 3.95 µM | Cc1ccc(NC(=O)C2CCN(c3ncnc4c3nc3n4CCCCC3)CC2)cc1Cl |
| > 100 µM (inactive) | COc1cc(Cl)c(C)cc1NC(=O)C1CCN(c2ncnc3c2nc2n3CCCCC2)CC1 |
| 3.05 µM | CCCN1CCN(C(=O)C2CCN(c3ncnc4c3nc3n4CCCCC3)CC2)CC1 |
| inactive | Cc1ccc(NC(=O)C2CCN(c3ncnc4c3nc3n4CCCCC3)CC2)cc1F |
| 14 µM | O=C(C1CCN(c2ncnc3c2nc2n3CCCCC2)CC1)N1CCC(Cc2ccccc2)CC1 |
| > 100 µM (inactive) | Cc1ccc(NC(=O)C2CCN(c3ncnc4c3nc3n4CCCCC3)CC2)cc1Br |
| inactive | Cc1cc(Cl)ccc1NC(=O)C1CCN(c2ncnc3c2nc2n3CCCCC2)CC1 |
| inactive | O=C(C1CCN(c2ncnc3c2nc2n3CCCCC2)CC1)N1CCN(c2ccccn2)CC1 |
| inactive | Cc1cccc(NC(=O)C2CCN(c3ncnc4c3nc3n4CCCCC3)CC2)c1C |
| inactive | O=C(C1CCN(c2ncnc3c2nc2n3CCCCC2)CC1)N1CCN(c2ccccc2)CC1 |
| > 100 µM (inactive) | CC1CCCCN1C(=O)C1CCN(c2ncnc3c2nc2n3CCCCC2)CC1 (stereo not given) |
| inactive | O=C(C1CCN(c2ncnc3c2nc2n3CCCCC2)CC1)N1CCN(c2ccc(F)cc2)CC1 |
| 8.74 µM | CC1CCCC(C)N1CCCNC(=O)C1CCCN(c2ncnc3c2nc2n3CCCCC2)C1 (stereo not given) |
| inactive | CC1CC(C)CN(C(=O)C2CCN(c3ncnc4c3nc3n4CCCCC3)CC2)C1 (stereo not given) |
| 3.42 µM | O=C(NCCCN1CCCCC1)C1CCN(c2ncnc3c2nc2n3CCCCC2)CC1 |
| inactive | O=C(Nc1cc(F)ccc1F)C1CCN(c2ncnc3c2nc2n3CCCCC2)CC1 |
| inactive | O=C(C1CCN(c2ncnc3c2nc2n3CCCCC2)CC1)N1CCN(c2ncccn2)CC1 |
| > 100 µM (inactive) | Cc1cc(C)cc(NC(=O)C2CCN(c3ncnc4c3nc3n4CCCCC3)CC2)c1 |
| > 100 µM (inactive) | Cc1ccc(NC(=O)C2CCN(c3ncnc4c3nc3n4CCCCC3)CC2)c(Cl)c1 |
| 3.05 µM | O=C(C1CCN(c2ncnc3c2nc2n3CCCCC2)CC1)N1CCN(Cc2ccccc2)CC1 |
| inactive | O=C(C1CCN(c2ncnc3c2nc2n3CCCCC2)CC1)N1CCOCC1 |
